The record followed here is ChEMBL document CHEMBL5608207, “Development of narrow-spectrum topoisomerase-targeting antibacterials against mycobacteria” (Eur J Med Chem, 2024).

In brackets after ≈: the same amount, converted by molar mass. Activity calls are given as the source filed them. The calls are words filed in the database; no cut-off is given here.

Assay [1] deals with Mycobacteroides abscessus. Put plainly: Antimycobacterial activity against Mycobacterium abscessus RIVM incubated for 1 day by resazurin reduction microplate assay. Format: functional. The note with it: 24 h. For orientation: The colour change of resazurin is a common sign of viable cells or microbes.
Assay [2] deals with Acinetobacter baumannii. Kind of assay: Antibacterial activity against Acinetobacter baumannii ATCC17978 incubated for 18 hrs by serial broth microdilution method. Format: functional.
The subject of assay [3] is Escherichia coli. Kind of assay: Antibacterial activity against Escherichia coli ATCC 25922 incubated for 18 hrs by serial broth microdilution method. Format: functional. Background: Broth dilution looks for growth in wells or tubes with falling amounts of substance.
In assay [4] the test system is Klebsiella pneumoniae. Kind of assay: Antibacterial activity against Klebsiella pneumoniae ATCC10031 incubated for 18 hrs by serial broth microdilution method. Format: functional.
The test system of assay [5] is Mycobacterium tuberculosis. Kind of assay: Antimycobacterial activity against Mycobacterium tuberculosis H37Rv ATCC 25618 assessed as reduction in viability incubated for 6 days by resazurin reduction microplate assay. Format: functional. The settings on record: H37Rv ATCC 25618, 144 h, time 6 day.
Assay [6] relates to Pseudomonas aeruginosa. Put plainly: Antibacterial activity against Pseudomonas aeruginosa ATCC 27853 incubated for 18 hrs by serial broth microdilution method. In kind it is functional.
Assay [7] has as its system Mycolicibacterium smegmatis. Put plainly: Antimycobacterial activity against Mycobacterium smegmatis MC2 incubated for 2 days by resazurin reduction microplate assay. The settings on record: MC2, 48 h, time 2 day. In kind it is functional.
The test system of assay [8] is Enterobacter cloacae. Kind of assay: Antibacterial activity against Enterobacter cloacae ATCC13047 incubated for 18 hrs by serial broth microdilution method. In kind it is functional.
Assay [9] relates to Staphylococcus aureus. Put plainly: Antibacterial activity against Staphylococcus aureus ATCC 29213 incubated for 18 hrs by serial broth microdilution method. Format: functional.
For assay [10], the system named is Mycobacterium tuberculosis. Put plainly: Antimycobacterial activity against GFP-expressing Mycobacterium tuberculosis H37Rv infected in PMA-treated THP-1 cells assessed as bacterial viability at 10 uM pre-infected for 3 hrs prior to gentamycin addition for 1 hr followed by washout and compound addition measured after 4 days by fluorescence microscopic analysis (reference value: 100%). Format: functional. The settings on record: time 4 day.

Assay [11] has as its system Mycobacterium tuberculosis. Kind of assay: Antimycobacterial activity against GFP-expressing Mycobacterium tuberculosis H37Rv infected in PMA-treated THP-1 cells assessed as number of viable macrophages at 10 uM pre-infected for 3 hrs prior to gentamycin addition for 1 hr followed by washout and compound addition measured after 4 days by fluorescence microscopic analysis. In kind it is functional. The note with it: time 4 day.

Assay [12] has as its target DNA topoisomerase 2-alpha (Homo sapiens) (UniProt P11388). Kind of assay: Inhibition of human DNA topoisomerase II alpha assessed as residual activity at 100 uM using supercoiled pNO1 plasmid as substrate incubated for 30 mins by diamond dye staining based fluorescence microplate reader assay relative to control.
Assay [13] has the same target. Kind of assay: Inhibition of human DNA topoisomerase II alpha assessed as residual activity at 10 uM using supercoiled pNO1 plasmid as substrate incubated for 30 mins by diamond dye staining based fluorescence microplate reader assay relative to control.

Sequence of DNA topoisomerase 2-alpha (Homo sapiens) (P11388 whole entry): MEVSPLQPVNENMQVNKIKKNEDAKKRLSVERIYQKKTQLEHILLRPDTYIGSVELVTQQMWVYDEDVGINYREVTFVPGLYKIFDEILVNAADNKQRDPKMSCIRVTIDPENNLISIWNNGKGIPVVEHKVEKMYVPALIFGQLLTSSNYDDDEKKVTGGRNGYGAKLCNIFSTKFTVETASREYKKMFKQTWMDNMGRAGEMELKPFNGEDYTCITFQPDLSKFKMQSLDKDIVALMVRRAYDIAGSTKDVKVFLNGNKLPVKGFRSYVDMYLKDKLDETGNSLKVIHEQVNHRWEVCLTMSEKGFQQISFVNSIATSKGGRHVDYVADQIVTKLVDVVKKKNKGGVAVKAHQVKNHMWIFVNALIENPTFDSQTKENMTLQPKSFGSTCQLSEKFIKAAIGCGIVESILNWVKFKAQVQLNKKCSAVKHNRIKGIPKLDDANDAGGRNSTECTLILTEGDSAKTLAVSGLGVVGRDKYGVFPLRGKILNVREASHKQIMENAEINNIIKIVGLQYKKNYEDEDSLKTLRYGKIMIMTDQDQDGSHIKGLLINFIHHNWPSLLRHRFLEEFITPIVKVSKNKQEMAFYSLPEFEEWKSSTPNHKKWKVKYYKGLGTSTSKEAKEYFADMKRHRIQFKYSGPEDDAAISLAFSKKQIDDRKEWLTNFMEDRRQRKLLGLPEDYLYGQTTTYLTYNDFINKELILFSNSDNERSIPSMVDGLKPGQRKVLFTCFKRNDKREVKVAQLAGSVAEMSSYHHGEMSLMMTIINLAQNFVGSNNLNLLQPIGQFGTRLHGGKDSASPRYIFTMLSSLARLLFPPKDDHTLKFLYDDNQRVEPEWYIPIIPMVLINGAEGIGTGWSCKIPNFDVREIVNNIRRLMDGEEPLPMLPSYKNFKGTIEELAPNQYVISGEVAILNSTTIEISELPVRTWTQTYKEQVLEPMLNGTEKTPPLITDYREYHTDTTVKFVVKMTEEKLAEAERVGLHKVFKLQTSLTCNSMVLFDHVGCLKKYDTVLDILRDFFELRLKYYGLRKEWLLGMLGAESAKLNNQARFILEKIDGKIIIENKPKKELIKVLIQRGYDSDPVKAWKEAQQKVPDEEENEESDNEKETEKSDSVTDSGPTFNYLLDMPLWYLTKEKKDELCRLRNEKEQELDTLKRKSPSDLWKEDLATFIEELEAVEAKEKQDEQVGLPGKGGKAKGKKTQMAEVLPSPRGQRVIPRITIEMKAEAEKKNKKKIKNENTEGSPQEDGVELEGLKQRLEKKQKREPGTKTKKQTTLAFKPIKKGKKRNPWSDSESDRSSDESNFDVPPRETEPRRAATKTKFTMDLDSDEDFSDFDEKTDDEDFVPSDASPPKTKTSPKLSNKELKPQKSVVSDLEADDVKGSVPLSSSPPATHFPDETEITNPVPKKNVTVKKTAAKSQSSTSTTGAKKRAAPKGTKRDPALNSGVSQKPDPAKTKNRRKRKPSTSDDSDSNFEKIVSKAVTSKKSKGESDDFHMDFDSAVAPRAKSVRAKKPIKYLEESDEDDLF

In general, MIC90 refers to the lowest concentration that inhibits either 90% of growth or 90% of the strains tested, depending on the study. Take `Cc1[nH]c(C(=O)Nc2nc3c(OC(CN4CCOCC4)C4CC4)cc(C(=O)O)cc3s2)cc1F` (configuration not stated): the MIC90 in assay [1] was 1.25 µM (≈ 0.611 µg/mL); in assay [2] it was above 131 µM; in assay [3], above 131 µM; in assay [4] it was 33 µM (≈ 16.1 µg/mL); in [5], above 20 µM; in assay [6], above 131 µM. Further, the MIC90 in assay [7] is 2.5 µM (≈ 1.22 µg/mL); in [8], above 131 µM; in assay [9], 131 µM (≈ 64 µg/mL).

Turning to `NNC(=O)c1ccncc1` [ISONIAZID], the Activity in [10] was 4.9%.

Consider `CO[C@H]1/C=C/O[C@@]2(C)Oc3c(C)c(O)c4c(O)c(c(/C=N/N5CCN(C)CC5)c(O)c4c3C2=O)NC(=O)/C(C)=C\C=C\[C@H](C)[C@H](O)[C@@H](C)[C@@H](O)[C@@H](C)[C@H](OC(C)=O)[C@@H]1C` [RIFAMPIN], for which the Activity in assay [10] amounted to 1.4%; in assay [11], 100%.

In the case of `Cc1[nH]c(C(=O)Nc2nc3c(OC(CN4CCOCC4)c4ccccc4)cc(C(=O)O)cc3s2)cc1F` (configuration not stated), the MIC90 was 2.5 µM (≈ 1.31 µg/mL) in assay [1], above 40 µM in assay [5] and 10 µM (≈ 5.25 µg/mL) in [7]. Also, the outcome in assay [9] was inactive.

Regarding `Cc1[nH]c(C(=O)Nc2nc3c(OC(CN4CCN(C)CC4)c4ccccc4)cc(C(=O)O)cc3s2)c(Cl)c1Cl` (configuration not stated), the MIC90 was found to be 2.5 µM (≈ 1.47 µg/mL) in assay [1], 20 µM (≈ 11.8 µg/mL) in assay [5] and 2.5 µM (≈ 1.47 µg/mL) in assay [7].

Take `Cc1[nH]c(C(=O)Nc2nc3c(OC(CN4CCC(N(C)C)CC4)c4ccccc4)cc(C(=O)O)cc3s2)c(Cl)c1Cl` (configuration not stated): the MIC90 in assay [1] stood at 2.5 µM (≈ 1.54 µg/mL); in [5], 10 µM (≈ 6.17 µg/mL); in assay [7], 5 µM (≈ 3.08 µg/mL).

In the case of `Cc1[nH]c(C(=O)Nc2nc3c(OC(CN4CC[N+](C)(C)CC4)c4ccccc4)cc(C(=O)O)cc3s2)c(Cl)c1Cl` (configuration not stated), the MIC90 came out at 0.63 µM in assay [1], 0.31 µM in assay [5] and 0.32 µM in assay [7]. Further, the outcome in assay [9] was inactive.

As to `Cc1[nH]c(C(=O)Nc2nc3c(OC(CN(C)C)c4ccccc4)cc(C(=O)O)cc3s2)cc1F` (configuration not stated), the MIC90 was 0.31 µM (≈ 0.15 µg/mL) in assay [1]; above 133 µM in assay [2]; 133 µM (≈ 64.2 µg/mL) in assay [3]; 2 µM (≈ 0.965 µg/mL) in assay [4]; 2.5 µM (≈ 1.21 µg/mL) in [5]; 33 µM (≈ 15.9 µg/mL) in [6]. Also, the values for the MIC90 in assay [7], in assay [8] and in [9] were 1.25 µM (≈ 0.603 µg/mL), above 133 µM and 33 µM (≈ 15.9 µg/mL), respectively. For the same compound, the Activity in [12] and in assay [13] was 99% each time.
